Among the data in patent publication US20150004134A1, “TREATMENT OF CANCER WITH HETEROCYCLIC INHIBITORS OF GLUTAMINASE” (Calithera Biosciences, Inc., priority 2012, published 2015) are IC50 values, retold here.

The target in assay [1] is T1, recombinant form of Glutaminase 1 (GAC) (Homo sapiens, UniProt O94925).
T1 sequence (O94925 137-598 isoform O94925-3 limits assumed): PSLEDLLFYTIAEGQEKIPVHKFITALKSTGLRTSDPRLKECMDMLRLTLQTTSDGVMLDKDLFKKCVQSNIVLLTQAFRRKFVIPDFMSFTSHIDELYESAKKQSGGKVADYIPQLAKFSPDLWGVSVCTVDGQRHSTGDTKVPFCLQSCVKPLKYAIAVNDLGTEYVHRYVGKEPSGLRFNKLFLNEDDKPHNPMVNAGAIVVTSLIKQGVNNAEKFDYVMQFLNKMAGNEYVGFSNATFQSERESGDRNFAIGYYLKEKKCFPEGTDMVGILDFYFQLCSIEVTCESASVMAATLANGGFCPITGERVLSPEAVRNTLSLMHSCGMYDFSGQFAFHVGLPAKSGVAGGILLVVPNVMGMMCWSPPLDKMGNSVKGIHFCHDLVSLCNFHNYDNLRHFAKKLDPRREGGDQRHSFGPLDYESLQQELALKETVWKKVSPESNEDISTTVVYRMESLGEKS
Nature of the assay: Recombinant Enzyme Assay (no preincubation).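 Also: GDH-coupled GAC activity read as absorbance at 340 nm in kinetic mode over 15 min at 20 °C, slopes compared with a DMSO-only control, lower slope means inhibition.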 As to conditions: read-out: GAC Delta N2 IC50 no preinc. In kind it is biochemical.
Procedure: Compounds were assessed for their ability to inhibit the enzymatic activity of a recombinant form of Glutaminase 1 (GAC) using a biochemical assay that couples the production of glutamate (liberated by GAC) to glutamate dehydrogenase (GDH) and measuring the change in absorbance for the reduction of NAD^+ to NADH. […] Enzymatic reaction was started with the addition of 50 μL of enzyme solution (50 mM Tris-HCl pH 8.0, 0.2 mM EDTA, 150 mM K2HPO4, 0.1 mg/ml BSA, 1 mM DTT, 10 ppm antifoam, 4 units/ml GDH, 4 mM adenosine diphosphate, and 4 nM GAC) and read in a Molecular Devices M5 plate reader at 20° C. The plate reader was configured to read absorbance (λ=340 nm) in kinetic mode for 15 minutes. Data was recorded as milli-absorbance units per minute and slopes were compared to a control compound and a DMSO-only control on the same plate. Compounds with slopes less than the DMSO control were considered inhibitors and plate variability was assessed using the control compound.

A further assay relates to P493-6 (myc "on") cells. Nature of the assay: Cell Proliferation Assay. In kind it is cell-based. As to conditions: P493-6, 72 h. In a few lines:
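P493-6 cells with myc on, 10,000 per well in RPMI/10% FBS, exposed to serially diluted compound (0.5% DMSO final) for 72 h at 37 °C, 5% CO2. Antiproliferative effect read by Cell Titer Glo luminescence or Viacount FACS viability count.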

The target in assay [2] is T1, recombinant form of Glutaminase 1 (GAC). The assay is described as follows: Recombinant Enzyme Assay - Time Dependence (60 min preincubation). Type of assay: biochemical. The procedure, abridged:
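Enzyme and compound preincubated 60 min at 20° C; reaction started with substrate buffer (50 mM Tris-HCl pH 8.0, 150 mM K2HPO4, 1 mM DTT, 20 mM L-glutamine, 2 mM NAD^+). NADH formation followed at 340 nm in kinetic mode for 15 min at 20° C; slopes (mAU/min) compared with DMSO and control-compound wells.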

The mark [3] stands for this setting: read-out: Cell prolif P493 72 h IC50, P493 cells, 72 h.
Setting [4] is: read-out: GAC Delta N2 IC50 60 min preinc.
Setting [5] is: read-out: Cell prolif P493 72 h IC50, P493-6 cells, 72 h.

The structures appear in SMILES notation. Where two headings read alike, the source gives them in different places.

Turning to `O=C(Nc1nnc(CCSCCc2nnc(NC(=O)C(CO)c3ccccc3)s2)s1)C(CO)c1ccccc1` (stereo not shown) [Compound 24], the results for the IC50 (in assay [1]; with P493-6 (myc "on") cells (setting [3])) were 510 nM and 2300 nM, respectively. For `O=C(CCCCN1CCOCC1)OCN(C(=O)Cc1ccccc1)c1nnc(CCSCCc2nnc(N(COC(=O)OCCCN3CCOCC3)C(=O)Cc3ccccc3)s2)s1` [Compound 28], in that order: more than 50000 nM and 1000 nM.

On to `O=C(Cc1ccccc1)Nc1nnc(CCSCCc2nnc(NC(=O)C(CO)c3ccccc3)s2)s1` (stereo not shown) [Compound 29], for which the IC50 in assay [1] was determined as 560 nM; in the assay with P493-6 (myc "on") cells (setting [3]), 4100 nM.

Take `O=C(Nc1nnc(CCSCCc2nnc(NC(=O)[C@H]3C[C@@H]3c3ccccc3)s2)s1)C1C[C@@H]1c1ccccc1` (stereo partly shown) [Compound 91]: in assay [1], the IC50 was more than 20000 nM. As for `Nc1cccc(CC(=O)Nc2nnc(CCSCCc3nnc(NC(=O)Cc4cccc(N)c4)s3)s2)c1` [Compound 99], the results for the IC50 (in assay [1]; with P493-6 (myc "on") cells (setting [3])) were 2700 nM and 1000 nM, respectively. As for `O=C(Nc1nnc(CCSCCc2nnc(NC(=O)C3COc4ccccc43)s2)s1)C1COc2ccccc21` (stereo not shown) [Compound 133], the IC50 stood at 510 nM in assay [1] and 150 nM with P493-6 (myc "on") cells (setting [3]).

`CC[C@@](O)(C(=O)Nc1nnc(CCCCc2nnc(NC(=O)[C@](O)(CC)c3ccccc3)s2)s1)c1ccccc1` [Compound 144]: the IC50 in assay [1] is more than 20000 nM.

Turning to `COc1cccc(CC(=O)Nc2nnc(CCCCc3nnc(NC(=O)Cc4cccc(OC)c4)s3)s2)c1` [Compound 159], the IC50 in assay [1] was 110 nM; in the assay with P493-6 (myc "on") cells (setting [3]), 50 nM. `COc1ccc(CC(=O)Nc2nnc(CCCCc3nnc(NC(=O)Cc4ccc(OC)cc4)s3)s2)cc1` [Compound 163]: the IC50 was 130 nM in assay [1] and more than 50000 nM in the assay on P493-6 (myc "on") cells (setting [3]). For the compound `COc1cc(CC(=O)Nc2nnc(CCCCc3nnc(NC(=O)Cc4cc(OC)cc(OC)c4)s3)s2)cc(OC)c1` [Compound 205], the values for the IC50 (in assay [1]; in the assay on P493-6 (myc "on") cells (setting [3])) were 380 nM and 4100 nM, respectively. For `O=C(Cc1cccc(OCCO)c1)Nc1nnc(CCCCc2nnc(NC(=O)Cc3cccc(OCCO)c3)s2)s1` [Compound 235], the IC50 came to 110 nM in assay [1] and 210 nM with P493-6 (myc "on") cells (setting [3]). As to `CC(=O)O[C@@H](C(=O)Nc1nnc(CCSCc2nnc(NC(=O)[C@H](OC(C)=O)c3ccccc3)s2)s1)c1ccccc1` [Compound 238], the IC50 in assay [1] was 13000 nM. On to `O=C(Nc1nnc(CCSCc2nnc(NC(=O)C(CO)c3ccccc3)s2)s1)C(CO)c1ccccc1` (stereo not shown) [Compound 239], for which the IC50 (in assay [1]; in the assay on P493-6 (myc "on") cells (setting [3])) was 300 nM each time. Take `O=C(Cc1cccc(OCCN2CCOCC2)c1)Nc1nnc(CCCCc2nnc(NC(=O)Cc3cccc(OCCN4CCOCC4)c3)s2)s1` [Compound 241]: the IC50 in assay [1] amounted to 380 nM; with P493-6 (myc "on") cells (setting [3]) it was 870 nM. Taken in the same sequence, the figures for `O=C(Nc1nnc(CCSCc2nnc(NC(=O)[C@@H](O)c3ccccc3)s2)s1)[C@@H](O)c1ccccc1` [Compound 242] were 360 nM and 220 nM. Taken in the same sequence, the figures for `CCOC(=O)Nc1nnc(CCCCc2nnc(NC(=O)Cc3ccccc3)s2)s1` [Compound 244] were 840 nM and 1700 nM. In the case of `COc1cccc(CC(=O)Nc2nnc(CCSCc3nnc(NC(=O)Cc4cccc(OC)c4)s3)s2)c1` [Compound 250], the values for the IC50 (in assay [1]; in the assay on P493-6 (myc "on") cells (setting [3])) were 120 nM and 140 nM, respectively. With `O=C(Cc1cccc(CN2CCNCC2)c1)Nc1nnc(CCSCc2nnc(NC(=O)Cc3cccc(CN4CCNCC4)c3)s2)s1` [Compound 276], the IC50 stood at 1500 nM in assay [1] and 56000 nM with P493-6 (myc "on") cells (setting [3]). Consider `C=C(C(=O)Nc1nnc(CCCCc2nnc(NC(=O)C(OCC(=O)CCN3CCOCC3)c3ccccc3)s2)s1)c1ccccc1` (stereo not shown) [Compound 281], for which the IC50 worked out at 740 nM in assay [1] and 660 nM with P493-6 (myc "on") cells (setting [3]). With `O=C(Cc1ccccn1)Nc1nnc(CCCCc2nnc(NC(=O)Cc3ccccn3)s2)s1` [Compound 307], the IC50 in assay [1] was found to be 6400 nM; in the assay with P493-6 (myc "on") cells (setting [3]), 9300 nM. In the case of `O=C(Cc1ccccc1)Nc1nnc(CCCCc2nnc(NC(=O)Cc3ccccn3)s2)s1` [Compound 310], the values for the IC50 (in assay [1]; in the assay on P493-6 (myc "on") cells (setting [3])) were 83 nM and 120 nM, respectively. Take `O=C(O)Cc1cccc(CC(=O)Nc2nnc(CCCCc3nnc(NC(=O)Cc4cccc(CC(=O)O)c4)s3)s2)c1` [Compound 313]: the figures for the IC50 (in assay [1]; in the assay on P493-6 (myc "on") cells (setting [3])) were 270 nM and 94000 nM, respectively. For `O=C(Cc1ccccc1)Nc1ccc(CCCCc2nnc(NC(=O)C(CO)c3ccccc3)s2)nn1` (stereo not shown) [Compound 314], in that order: 140 nM and 48 nM. For `CC(C)(C)OC(=O)NCc1cccc(CC(=O)Nc2nnc(CCCCc3nnc(NC(=O)Cc4cccc(CNC(=O)OC(C)(C)C)c4)s3)s2)c1` [Compound 324], in that order: 4600 nM and 100 nM. Regarding `Nc1cccc(CC(=O)Nc2nnc(CCCCc3nnc(NC(=O)Cc4cccc(N)c4)s3)s2)c1` [Compound 329], the IC50 in assay [1] worked out at 170 nM; with P493-6 (myc "on") cells (setting [3]), 450 nM. Consider `O=C(Cc1ccccc1)Nc1ccc(CCCCc2nnc(NC(=O)Cc3ccc(O)c(Cl)c3)s2)nn1` [Compound 336], for which the results for the IC50 (in assay [1]; in the assay with P493-6 (myc "on") cells (setting [3])) were 68 nM and 52 nM, respectively.

Take `CC(NC(=O)C(F)(F)F)c1cccc(CC(=O)Nc2ccc(CCCCc3nnc(NC(=O)Cc4ccccc4)s3)nn2)c1` (stereo not shown) [Compound 622]: the figures for the IC50 (in assay [2] (setting [4]); in the assay on P493-6 (myc "on") cells (setting [5])) were 4 nM and 10 nM, respectively.

`CC(NC(=O)CC(F)(F)F)c1cccc(CC(=O)Nc2ccc(CCCCc3nnc(NC(=O)Cc4ccccc4)s3)nn2)c1` (stereo not shown) [Compound 624]: the values for the IC50 (in assay [2]; in the assay on P493-6 (myc "on") cells (setting [5])) were 4 nM and 9 nM, respectively. For `CC(C)CC(=O)NC(C)c1cccc(CC(=O)Nc2ccc(CCCCc3nnc(NC(=O)Cc4ccccc4)s3)nn2)c1` (stereo not shown) [Compound 625], the results for the IC50 (in assay [2]; in the assay on P493-6 (myc "on") cells (setting [5])) were 4 nM and 6 nM, respectively. Take `CC(NS(C)(=O)=O)c1cccc(CC(=O)Nc2ccc(CCCCc3nnc(NC(=O)Cc4ccccc4)s3)nn2)c1` (stereo not shown) [Compound 626]: the IC50 in assay [2] came to 4 nM; in the assay with P493-6 (myc "on") cells (setting [5]), 17 nM. On to `CC(C)(C)OC(=O)NC(C)(C)c1cccc(CC(=O)Nc2nnc(CCCCc3ccc(NC(=O)Cc4ccccc4)nn3)s2)c1` [Compound 630], for which the IC50 came to 4 nM in assay [2] (setting [4]) and 9 nM in the assay on P493-6 (myc "on") cells (setting [5]). On to `CC(C)(C)OC(=O)NC(C)(C)c1cccc(CC(=O)Nc2ccc(CCCCc3nnc(NC(=O)Cc4ccccc4)s3)nn2)c1` [Compound 631], for which the IC50 in assay [2] (setting [4]) came to 5 nM; with P493-6 (myc "on") cells (setting [5]), 6 nM. Turning to `CC(C)(N)c1cccc(CC(=O)Nc2nnc(CCCCc3ccc(NC(=O)Cc4ccccc4)nn3)s2)c1` [Compound 632], the results for the IC50 (in assay [2]; with P493-6 (myc "on") cells (setting [5])) were 10 nM and 200 nM, respectively. With `CC(C)(N)c1cccc(CC(=O)Nc2ccc(CCCCc3nnc(NC(=O)Cc4ccccc4)s3)nn2)c1` [Compound 633], the IC50 turned out to be 7 nM in assay [2] (setting [4]) and 130 nM in the assay on P493-6 (myc "on") cells (setting [5]). Consider `CS(=O)(=O)Cc1cccc(CC(=O)Nc2ccc(CCCCc3nnc(NC(=O)Cc4ccccc4)s3)nn2)c1` [Compound 635], for which the IC50 was 5 nM in assay [2] (setting [4]) and 30 nM with P493-6 (myc "on") cells (setting [5]).

On to `CCCCS(=O)(=O)Cc1cccc(CC(=O)Nc2nnc(CCCCc3ccc(NC(=O)Cc4ccccc4)nn3)s2)c1` [Compound 644], for which the IC50 in assay [2] is 3 nM; in the assay with P493-6 (myc "on") cells (setting [5]), 13 nM. For `CCCCS(=O)(=O)Cc1cccc(CC(=O)Nc2ccc(CCCCc3nnc(NC(=O)Cc4ccccc4)s3)nn2)c1` [Compound 645], the figures for the IC50 (in assay [2] (setting [4]); in the assay on P493-6 (myc "on") cells (setting [5])) were 2 nM and 15 nM, respectively. Consider `CCN(CC)C(=O)COc1cccc(CC(=O)Nc2ccc(CCCCc3nnc(NC(=O)Cc4ccccc4)s3)nn2)c1` [Compound 646], for which the IC50 is 7 nM in assay [2] (setting [4]) and 37 nM in the assay with P493-6 (myc "on") cells (setting [5]). For `CC(C)CNC(=O)COc1cccc(CC(=O)Nc2ccc(CCCCc3nnc(NC(=O)Cc4ccccc4)s3)nn2)c1` [Compound 647], in that order: 4 nM and 18 nM. For `O=C(Cc1cccc2c1CNC2)Nc1ccc(CCCCc2nnc(NC(=O)Cc3cccc(OC(F)(F)F)c3)s2)nn1` [Compound 649], the IC50 in assay [2] (setting [4]) amounted to 4 nM; in the assay with P493-6 (myc "on") cells (setting [5]), 34 nM. As to `CC(N)c1cc(CC(=O)Nc2nnc(CCCCc3ccc(NC(=O)Cc4ccccc4)nn3)s2)ccc1F` (stereo not shown) [Compound 655], the IC50 in assay [2] (setting [4]) was found to be 19 nM; with P493-6 (myc "on") cells (setting [5]) it was 350 nM.

Take `CC(N)c1cc(CC(=O)Nc2ccc(CCCCc3nnc(NC(=O)Cc4ccccc4)s3)nn2)ccc1F` (stereo not shown) [Compound 656]: the IC50 in assay [2] (setting [4]) worked out at 18 nM; in the assay on P493-6 (myc "on") cells (setting [5]), 400 nM. `O=C(Cc1ccccc1)Nc1ccc(CCCCc2nnc(NC(=O)Cc3cccc(OCC(F)(F)F)c3)s2)nn1` [Compound 665]: the values for the IC50 (in assay [2] (setting [4]); with P493-6 (myc "on") cells (setting [5])) were 5 nM and 100 nM, respectively.

Regarding `O=C(Cc1cccc(OCC(F)(F)F)c1)Nc1ccc(CCCCc2nnc(NC(=O)Cc3ccccc3)s2)nn1` [Compound 667], the IC50 was 4 nM in assay [2] (setting [4]) and 110 nM in the assay on P493-6 (myc "on") cells (setting [5]).
